# Assay results: paper PMC2248166, “Quantitative peptide binding motifs for 19 human and mouse MHC class I molecules derived using positional scanning combinatorial peptide libraries” (Immunome Research, 2008)
# Where a SMILES comes first, the peptide text is derived from it.
# Legend:
# [1] = target: HLA B*1501 (Homo sapiens, UniProt P01889, A329T/A93T/A95T/C349S/D201E/D98Y/E187L/E204Q/E69M/E70A/K202T/N87E/Q94N/R155S/R180W/S121R/S35A/S48A/V306I/V36M/Y140S/Y91S); experiment: biochemical; format: binding
# [2] = target: HLA B*1503 (Homo sapiens, UniProt P01889, A329T/A93T/A95T/C349S/D201E/D98Y/E187L/E204Q/K202T/N87E/Q94N/R155S/R180L/S121R/S35A/V306I/V36M/Y140S/Y91S); experiment: biochemical; format: binding
SMILES,IC50 [1] [nM],IC50 [2] [nM]
CC[C@H](C)[C@H](NC(=O)[C@H](CCC(N)=O)NC(=O)[C@@H](N)CO)C(=O)N[C@@H](CCC(=O)O)C(=O)N[C@H](C(=O)NCC(=O)N[C@H](C(=O)N1CCC[C@H]1C(=O)N[C@@H](Cc1ccccc1)C(=O)O)[C@@H](C)O)[C@@H](C)O [3102.1253] (H-SQIETGTPF-OH),0.61,1.3
CC(C)C[C@H](NC(=O)[C@H](C)N)C(=O)N[C@@H](CCCNC(=N)N)C(=O)N1CCC[C@H]1C(=O)N[C@@H](CO)C(=O)N[C@@H](CO)C(=O)N[C@@H](CCC(N)=O)C(=O)N[C@H](C(=O)N[C@@H](Cc1ccccc1)C(=O)O)C(C)C [3102.1320] (H-ALRPSSQVF-OH),1.5,0.095
CC[C@H](C)[C@H](NC(=O)[C@H](Cc1c[nH]cn1)NC(=O)[C@H](CO)NC(=O)[C@@H](NC(=O)[C@@H](NC(=O)[C@H](Cc1ccc(O)cc1)NC(=O)[C@H](C)NC(=O)[C@H](CCSC)NC(=O)[C@@H](N)Cc1ccccc1)[C@@H](C)O)[C@@H](C)O)C(=O)O [3102.1071] (H-FMAYTTSHI-OH),133,7.6
CC[C@H](C)[C@H](N)C(=O)N[C@@H](CO)C(=O)N[C@H](C(=O)N[C@@H](CC(C)C)C(=O)N[C@H](C(=O)NCC(=O)N[C@@H](CO)C(=O)N[C@@H](CO)C(=O)N[C@H](C(=O)O)[C@@H](C)CC)[C@@H](C)O)C(C)C [3102.1072] (H-ISVLTGSSI-OH),34,25
CC[C@H](C)[C@H](NC(=O)[C@H](Cc1c[nH]cn1)NC(=O)[C@H](CCCCN)NC(=O)[C@H](CC(N)=O)NC(=O)[C@H](CCSC)NC(=O)[C@@H](N)Cc1ccccc1)C(=O)N[C@@H](CC(C)C)C(=O)N[C@@H](CO)C(=O)N[C@@H](Cc1ccc(O)cc1)C(=O)O [3102.1258] (H-FMNKHILSY-OH),1.7,0.74
CC(C)C[C@H](NC(=O)[C@H](CC(C)C)NC(=O)[C@@H](NC(=O)[C@H](CO)NC(=O)[C@H](Cc1ccc(O)cc1)NC(=O)[C@H](CC(C)C)NC(=O)[C@@H](N)CCC(N)=O)[C@@H](C)O)C(=O)N[C@@H](CO)C(=O)N[C@@H](Cc1ccccc1)C(=O)O [3102.1175] (H-QLYSTLLSF-OH),3,0.57
CC[C@H](C)[C@H](NC(=O)[C@H](CO)NC(=O)[C@@H](N)Cc1ccccc1)C(=O)N[C@@H](Cc1ccc(O)cc1)C(=O)N[C@@H](CO)C(=O)N[C@H](C(=O)N[C@@H](CO)C(=O)N[C@@H](CS)C(=O)N[C@@H](Cc1ccccc1)C(=O)O)C(C)C [3102.1330] (H-FSIYSVSCF-OH),3.1,7.6
CC[C@H](C)[C@H](NC(=O)[C@H](CO)NC(=O)[C@@H](N)Cc1c[nH]c2ccccc12)C(=O)N[C@@H](Cc1ccc(O)cc1)C(=O)N[C@@H](CC(C)C)C(=O)N[C@@H](CO)C(=O)N[C@@H](CC(C)C)C(=O)N[C@@H](Cc1c[nH]cn1)C(=O)N[C@@H](Cc1ccc(O)cc1)C(=O)O [3102.0867] (H-WSIYLSLHY-OH),48,8.9
CC[C@H](C)[C@H](NC(=O)[C@H](CCC(N)=O)NC(=O)[C@@H](N)CO)C(=O)N[C@H](C(=O)N[C@H](C(=O)N[C@@H](CC(C)C)C(=O)N[C@H](C(=O)N[C@@H](C)C(=O)N[C@@H](Cc1ccccc1)C(=O)O)[C@@H](C)O)[C@@H](C)O)[C@@H](C)CC [3102.1111] (H-SQIITLTAF-OH),1,0.79
CC[C@H](C)[C@H](NC(=O)[C@H](CCSC)NC(=O)[C@H](CC(C)C)NC(=O)[C@H](CCSC)NC(=O)[C@@H](N)CCSC)C(=O)NCC(=O)N[C@@H](CC(N)=O)C(=O)N[C@@H](Cc1ccc(O)cc1)C(=O)N[C@@H](Cc1ccccc1)C(=O)O [3102.1301] (H-MMLMIGNYF-OH),33,0.2
CC(C)C[C@H](NC(=O)[C@@H](N)CCCNC(=N)N)C(=O)N[C@@H](CC(N)=O)C(=O)N1CCC[C@H]1C(=O)N[C@@H](CCC(=O)O)C(=O)N[C@H](C(=O)N[C@@H](CO)C(=O)N[C@@H](Cc1ccc(O)cc1)C(=O)N[C@@H](Cc1ccccc1)C(=O)O)C(C)C [3102.1097] (H-RLNPEVSYF-OH),0.3,0.32
C[C@@H](O)[C@H](NC(=O)[C@H](CCCCN)NC(=O)[C@H](Cc1ccc(O)cc1)NC(=O)[C@H](CCC(N)=O)NC(=O)[C@@H](N)CCC(=O)O)C(=O)N[C@@H](CCC(=O)O)C(=O)N[C@@H](CO)C(=O)N[C@@H](Cc1ccccc1)C(=O)N[C@@H](Cc1ccccc1)C(=O)O [3102.1224] (H-EQYKTESFF-OH),6.6,1.8
CSCC[C@H](NC(=O)[C@H](Cc1c[nH]cn1)NC(=O)[C@H](CCC(N)=O)NC(=O)CNC(=O)[C@@H]1CCCN1C(=O)[C@@H]1CCCN1C(=O)[C@H](C)NC(=O)[C@H](CO)NC(=O)[C@@H](N)CS)C(=O)O [3102.1226] (H-CSAPPGQHM-OH),53,24
CC(C)C[C@H](NC(=O)[C@@H](NC(=O)[C@H](CO)NC(=O)[C@@H](NC(=O)[C@H](CC(N)=O)NC(=O)[C@H](CC(C)C)NC(=O)[C@@H](N)CO)[C@@H](C)O)[C@@H](C)O)C(=O)NCC(=O)N[C@@H](Cc1ccccc1)C(=O)O [3102.1051] (H-SLNTSTLGF-OH),1.7,13
CC(C)C[C@H](NC(=O)[C@@H]1CCCN1C(=O)[C@H](CC(N)=O)NC(=O)[C@H](C)NC(=O)[C@@H](N)Cc1ccccc1)C(=O)N[C@@H](CO)C(=O)N[C@@H](CC(N)=O)C(=O)N1CCC[C@H]1C(=O)N[C@@H](Cc1ccccc1)C(=O)O [3102.1245] (H-FANPLSNPF-OH),1.7,1.9
CSCC[C@H](NC(=O)[C@H](Cc1ccc(O)cc1)NC(=O)[C@H](CCCCN)NC(=O)[C@H](CO)NC(=O)[C@H](Cc1ccccc1)NC(=O)[C@H](C)NC(=O)[C@@H](N)Cc1ccc(O)cc1)C(=O)N[C@@H](CO)C(=O)N[C@@H](Cc1ccccc1)C(=O)O [3102.1180] (H-YAFSKYMSF-OH),9,1.8
CC(C)C[C@H](NC(=O)[C@H](CO)NC(=O)[C@@H]1CCCN1C(=O)[C@H](CO)NC(=O)[C@H](Cc1ccccc1)NC(=O)[C@H](CO)NC(=O)[C@@H](N)C(C)C)C(=O)N[C@H](C(=O)N[C@@H](Cc1ccccc1)C(=O)O)[C@@H](C)O [3102.1333] (H-VSFSPSLTF-OH),1.3,1.2
CC(C)C[C@H](NC(=O)[C@H](Cc1ccccc1)NC(=O)[C@@H](NC(=O)[C@H](CCCCN)NC(=O)[C@H](CO)NC(=O)[C@@H](N)CO)C(C)C)C(=O)N[C@@H](CCCCN)C(=O)N[C@@H](C)C(=O)N[C@@H](Cc1ccccc1)C(=O)O [3102.0662] (H-SSKVFLKAF-OH),1.7,0.37
CC[C@H](C)[C@H](N)C(=O)N[C@@H](CO)C(=O)N[C@@H](CCCCN)C(=O)N[C@@H](CC(N)=O)C(=O)N[C@@H](C)C(=O)N[C@@H](Cc1ccccc1)C(=O)N[C@@H](CO)C(=O)N[C@@H](CS)C(=O)N[C@@H](CCSC)C(=O)O [3102.0935] (H-ISKNAFSCM-OH),78,
CC[C@H](C)[C@H](NC(=O)[C@@H](NC(=O)[C@@H](N)Cc1ccccc1)[C@@H](C)CC)C(=O)N[C@@H](CCCCN)C(=O)N[C@@H](CO)C(=O)N[C@@H](CO)C(=O)N[C@@H](Cc1ccc(O)cc1)C(=O)N[C@H](C(=O)N[C@@H](Cc1ccccc1)C(=O)O)C(C)C [3102.0827] (H-FIIKSSYVF-OH),3.2,
